Patent publication US20090197843A1, “Treatment of Prevention of Unscheduled Bleeding in Women on Progestogen Containing Medication” (PANTARHEI BIOSCIENCE B.V., priority 2004, published 2009)

What was measured:
Assay type in all cases: in vivo
[1] = tested on: healthy postmenopausal women; experiment: Clinical study: continuous combined HRT (estradiol/drosperinone) with or without captopril; conditions: 15 mg captopril with continuous combined HRT (1 mg estradiol, 2 mg drosperinone), three periods of 28 days; vs HRT preparation alone
Description: A clinical study is conducted in 50 healthy postmenopausal women, postmenopausal being defined as having had the last menstrual period at least 6 months before along with an increased FSH serum level. Two groups of 25 women who are not using any HRT are enrolled. All subjects receive a continuous combined HRT preparation containing 1 mg estradiol and 2 mg drosperinone for three periods of 28 days each. […] Subjects document any unscheduled vaginal bleeding (spotting, breakthrough bleeding) in a diary. Blood pressure is monitored intensively.

[2] = tested on: healthy women of childbearing age; experiment: Clinical study: low-dose oral contraceptive (20 μg ethinylestradiol/100 μg levonorgestrel) with or without irbesartan; conditions: 75 mg irbesartan with oral contraceptive (20 μg ethinylestradiol, 100 μg levonorgestrel), 84 days; vs oral contraceptive alone
Description: (§1) A clinical study is conducted in 40 healthy women of childbearing age. Two groups of 20 women who are not using oral contraception, ‘pill starters’, are enrolled. All subjects receive a low-dose oral contraceptive containing 20 μg ethinylestradiol and 100 μg levonorgestrel for 84 days. Twenty (20) subjects are randomized to additionally receive 75 mg irbesartan as an angiotensin II-receptor antagonist concomitantly with the oral contraceptive during the entire study period. All subjects document any unscheduled vaginal bleeding (spotting, breakthrough bleeding) in a diary. Blood pressure is monitored intensively.

[3] = tested on: healthy women of childbearing age; experiment: Clinical study: progestogen-only oral contraceptive (75 μg desogestrel) with or without irbesartan; conditions: 50 mg irbesartan with progestogen-only oral contraceptive (75 μg desogestrel), 84 days; vs oral contraceptive alone
Description: as §1, with “a progestogen-only” for “a low-dose”, “containing 75” for “containing 20”, “μg desogestrel” for “μg ethinylestradiol and 100 μg levonorgestrel”, “receive 50” for “receive 75”

[4] = tested on: healthy women of childbearing age; experiment: Clinical study: contraceptive injections (150 mg medroxyprogesterone acetate) with or without irbesartan; conditions: daily 75 mg irbesartan, 6 months, with two injections of 150 mg medroxyprogesterone acetate; vs contraceptive injection alone
Description: (§2) A clinical study is conducted in 40 healthy women of childbearing age. Two groups of 20 women are enrolled. All subjects receive two contraceptive injections containing 150 mg medroxyprogesterone acetate each with an interval of 3 months (13 weeks). Twenty (20) subjects are randomized to additionally receive daily 75 mg irbesartan as an angiotensin II-receptor antagonist during the entire study period of 6 months. All subjects document any unscheduled vaginal bleeding (spotting, breakthrough bleeding) in a diary. Blood pressure is monitored intensively.

[5] = tested on: healthy women of childbearing age; experiment: Clinical study: contraceptive implant (68 mg etonogestrel) with or without irbesartan; conditions: 75 mg irbesartan, 6 months, with implant containing 68 mg etonogestrel; vs contraceptive implant alone
Description: as §2, with “an implant” for “two contraceptive injections”, “68” for “150”, “etonogestrel.” for “medroxyprogesterone acetate each with an interval of 3 months (13 weeks).”, “receive” for “receive daily”, “antagonist concomitantly with the contraceptive implant” for “antagonist”

[6] = tested on: healthy postmenopausal women; experiment: Clinical study: sequentially combined HRT (estradiol/dydrogesterone) with or without irbesartan; conditions: 75 mg irbesartan with sequentially combined HRT (2 mg estradiol, 10 mg dydrogesterone), 3 cycles of 28 days; vs HRT preparation alone
Description: A clinical study is conducted in 40 healthy postmenopausal women, postmenopausal being defined as having had the last menstrual period at least 6 months before along with an increased FSH serum level. Two groups of 20 women who are not using any HRT are enrolled. All subjects receive a sequentially combined HRT preparation for 3 cycles of 28 days each. One cycle comprises 14 days of 2 mg estradiol only followed by 14 days of 2 mg estradiol for 14 days combined with 10 mg dydrogesterone. Twenty (20) subjects are randomized to additionally receive 75 mg irbesartan as an angiotensin II-receptor antagonist concomitantly with the HRT preparation during the entire study period. Subjects document any unscheduled vaginal bleeding (spotting, breakthrough bleeding) in a diary. Blood pressure is monitored intensively.

[7] = tested on: healthy postmenopausal women; experiment: Clinical study: continuous combined HRT (estradiol/norethisterone acetate) with or without irbesartan; conditions: 50 mg irbesartan with continuous combined HRT (2 mg estradiol, 1 mg norethisterone acetate), 84 days; vs HRT preparation alone
Description: A clinical study is conducted in 40 healthy postmenopausal women, postmenopausal being defined as having had the last menstrual period at least 6 months before along with an increased FSH serum level. Two groups of 20 women who are not using any HRT are enrolled. All subjects receive a continuous combined HRT preparation containing 2 mg estradiol and 1 mg norethisterone acetate for 84 days. Twenty (20) subjects are randomized to additionally receive 50 mg irbesartan as an angiotensin II-receptor antagonist concomitantly with the HRT preparation during the entire study period. Subjects document any unscheduled vaginal bleeding (spotting, breakthrough bleeding) in a diary. Blood pressure is monitored intensively.

[8] = tested on: healthy women of childbearing age; experiment: Clinical study: low-dose oral contraceptive (30 μg ethinylestradiol/100 μg levonorgestrel) with or without enalapril; conditions: 5 mg enalapril with oral contraceptive (30 μg ethinylestradiol, 100 μg levonorgestrel), 84 days; vs oral contraceptive alone
Description: A clinical study is conducted in 50 healthy women of childbearing age. Two groups of 25 women who are not using oral contraception, ‘pill starters’, are enrolled. All subjects receive a low-dose oral contraceptive containing 30 μg ethinylestradiol and 100 μg levonorgestrel for 84 days. Twenty-five (25) subjects are randomized to additionally receive 5 mg enalapril as an ACE-inhibitor with the oral contraceptive during the entire study period. All subjects document any unscheduled vaginal bleeding (spotting, breakthrough bleeding) in a diary. Blood pressure is monitored intensively.

For `C[C@H](CS)C(=O)N1CCC[C@H]1C(=O)O` [captopril], the Efficacy between groups [1] was “do not differ significantly”, the “episodes of unscheduled bleeding” value [1] was “fewer episodes of unscheduled bleeding” and the overall safety profile [1] was “comparable to that of the group receiving the HRT preparation alone”.

In the case of `CCCCC1=NC2(CCCC2)C(=O)N1Cc1ccc(-c2ccccc2-c2nnn[nH]2)cc1` [irbesartan], the “blood pressure pattern between groups” value [2] was “does not differ significantly”, the “episodes of unscheduled bleeding” value [2] was “fewer episodes of unscheduled bleeding” and the “intensity of blood loss” value [2] was “less intense blood loss, if any”. The overall safety profile [2] was “comparable to that of the group receiving the oral contraceptive alone”, the “blood pressure pattern between groups” value [3] was “does not differ significantly” and the “episodes of unscheduled bleeding” value [3] was “fewer episodes of unscheduled bleeding”. The “intensity of blood loss” value [3] was “less intense blood loss, if any”, the overall safety profile [3] was “comparable to that of the group receiving the oral contraceptive alone” and the “blood pressure pattern between groups” value [4] was “does not differ significantly”. The “episodes of unscheduled bleeding” value [4] was “fewer episodes of unscheduled bleeding”, the “intensity of blood loss” value [4] was “less intense blood loss, if any” and the overall safety profile [4] was “comparable to that of the group receiving the contraceptive injection alone”. For the same molecule, the “blood pressure pattern between groups” value [5] was “does not differ significantly”, the “episodes of unscheduled bleeding” value [5] was “fewer episodes of unscheduled bleeding” and the “intensity of blood loss” value [5] was “less intense blood loss, if any”. For the same molecule, the overall safety profile [5] was “comparable to that of the group receiving the contraceptive implant alone”, the Efficacy between groups [6] was “do not differ” and the “blood pressure pattern between groups” value [6] was “do not differ”. The “episodes of unscheduled bleeding” value [6] was “fewer episodes of unscheduled bleeding”, the “intensity of blood loss” value [6] was “less intense blood loss, if any” and the overall safety profile [6] was “comparable to that of the group receiving the HRT preparation alone”. The Efficacy between groups [7] was “do not differ significantly”, the “blood pressure pattern between groups” value [7] was “do not differ significantly” and the “episodes of unscheduled bleeding” value [7] was “fewer episodes of unscheduled bleeding”. For the same molecule, the “intensity of blood loss” value [7] was “less intense blood loss, if any” and the overall safety profile [7] was “comparable to that of the group receiving the HRT preparation alone”.

In the case of `CCOC(=O)[C@H](CCc1ccccc1)N[C@@H](C)C(=O)N1CCC[C@H]1C(=O)O` [enalapril], the “blood pressure pattern between groups” value [8] was “does not differ significantly”, the “episodes of unscheduled bleeding” value [8] was “fewer episodes of unscheduled bleeding” and the “intensity of blood loss” value [8] was “less intense blood loss, if any”. For the same molecule, the overall safety profile [8] was “comparable to that of the group receiving the oral contraceptive alone”.
